# Data as given in patent publication US8946215B2, “Hydroxy-substituted imidazo[1,2-a]pyridinecarboxamides and their use” (Bayer Pharma Aktiengesellschaft, priority 2012, dated 2015).
# Biological target: T1, recombinant guanylate cyclase reporter cell line (Rattus norvegicus, UniProt P19686+P20595)
# T1 construct: expressed in transfected cells
# T1 sequence (P20595 1-619): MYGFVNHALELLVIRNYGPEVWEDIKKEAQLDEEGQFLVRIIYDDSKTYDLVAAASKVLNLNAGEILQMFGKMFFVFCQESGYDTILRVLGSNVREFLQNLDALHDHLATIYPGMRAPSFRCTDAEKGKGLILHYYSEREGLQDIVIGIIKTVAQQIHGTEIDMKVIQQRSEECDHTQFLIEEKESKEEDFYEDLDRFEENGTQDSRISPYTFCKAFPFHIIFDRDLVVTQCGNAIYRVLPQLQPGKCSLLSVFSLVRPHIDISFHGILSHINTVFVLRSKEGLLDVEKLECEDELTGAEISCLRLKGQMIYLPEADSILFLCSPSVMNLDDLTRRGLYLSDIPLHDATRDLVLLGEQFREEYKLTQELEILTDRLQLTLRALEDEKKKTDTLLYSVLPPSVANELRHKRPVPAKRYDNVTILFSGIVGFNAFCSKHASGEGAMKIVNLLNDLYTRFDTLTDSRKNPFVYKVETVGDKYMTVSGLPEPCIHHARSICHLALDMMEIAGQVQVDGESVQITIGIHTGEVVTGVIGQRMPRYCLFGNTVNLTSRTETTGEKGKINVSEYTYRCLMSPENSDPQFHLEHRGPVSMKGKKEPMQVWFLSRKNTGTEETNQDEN
# T1 sequence (P19686 1-690): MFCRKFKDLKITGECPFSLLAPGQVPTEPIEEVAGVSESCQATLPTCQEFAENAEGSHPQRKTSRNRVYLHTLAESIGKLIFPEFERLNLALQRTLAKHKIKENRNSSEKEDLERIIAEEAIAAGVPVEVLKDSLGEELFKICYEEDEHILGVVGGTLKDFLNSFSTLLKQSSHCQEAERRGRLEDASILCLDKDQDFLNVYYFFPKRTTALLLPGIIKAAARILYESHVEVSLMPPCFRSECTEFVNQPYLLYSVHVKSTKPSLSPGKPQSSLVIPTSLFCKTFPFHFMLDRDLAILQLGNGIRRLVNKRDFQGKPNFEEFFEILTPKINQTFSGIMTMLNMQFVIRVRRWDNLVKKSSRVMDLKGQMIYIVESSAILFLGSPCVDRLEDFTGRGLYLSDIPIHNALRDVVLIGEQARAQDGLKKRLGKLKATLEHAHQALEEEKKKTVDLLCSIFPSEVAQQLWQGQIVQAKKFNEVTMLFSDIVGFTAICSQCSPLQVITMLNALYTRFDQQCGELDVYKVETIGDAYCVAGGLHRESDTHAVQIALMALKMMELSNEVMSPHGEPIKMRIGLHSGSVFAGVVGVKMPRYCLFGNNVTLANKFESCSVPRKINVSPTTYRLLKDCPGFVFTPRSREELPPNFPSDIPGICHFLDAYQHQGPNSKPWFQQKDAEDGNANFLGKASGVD
# Assay: Action on recombinant guanylate cyclase reporter cell line
# Format: cell-based
# Conditions: in some cases mean values obtained from individual determinations
# Outline: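 Cell-based reporter assay with recombinant guanylate cyclase expressed in a reporter cell line, per a published method. Activity reported as minimal effective concentration (MEC), in some cases as the mean of individual determinations.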
row,Compound,MEC (minimal effective concentration)
1,CCCC[C@H](CO)NC(=O)c1c(C)nc2c(OCc3cccc(Cl)c3Cl)cccn12 [Example 9],0.5 µM
2,CCCC[C@H](CO)NC(=O)c1c(C)nc2c(OCc3cccc(F)c3F)cccn12 [Example 10],0.3 µM
3,CCCC[C@H](CO)NC(=O)c1c(C)nc2c(OCc3cccc(C)c3F)cccn12 [Example 11],1.5 µM
4,CCCC[C@H](CO)NC(=O)c1c(C)nc2c(OCc3cccc4c3OC(F)(F)O4)cccn12 [Example 12],3.0 µM
5,CCCC[C@H](CO)NC(=O)c1c(C)nc2c(OCc3c(C)cccc3C)cccn12 [Example 13],3.0 µM
6,CCCC[C@H](CO)NC(=O)c1c(C)nc2c(OCc3cccc(C(F)(F)F)c3F)cccn12 [Example 14],3.0 µM
7,"CCCC[C@H](CO)NC(=O)c1c(C)nc2c(OCc3c(F)cc(F)cc3F)cccn12 [Example 15, N-[(2R)-1-Hydroxyhexan-2-yl]-2-methyl-8-[(2,4,6-trifluorobenzyl)oxy]imidazo[1,2-a]pyridine-3-carboxamide]",0.1 µM
8,"CC[C@H](CO)NC(=O)c1c(C)nc2c(OCc3ccccc3)cccn12 [Example 17, 8-(Benzyloxy)-N-[(2R)-1-hydroxybutan-2-yl]-2-methylimidazo[1,2-a]pyridine-3-carboxamide]",3.0 µM
9,CCC[C@H](CO)NC(=O)c1c(C)nc2c(OCc3c(F)cccc3F)cccn12 [Example 18],0.1 µM
10,Cc1nc2c(OCc3c(F)cccc3F)cccn2c1C(=O)N[C@H]1CCC[C@@H]1O [Example 19],1.0 µM
11,Cc1nc2c(OCc3c(F)cccc3F)cccn2c1C(=O)NC(C)(C)[C@H](C)O [Example 20],1.0 µM
12,Cc1nc2c(OCc3c(F)cccc3F)cccn2c1C(=O)NCCO [Example 21],1.0 µM
13,Cc1nc2c(OCc3c(F)cccc3F)cccn2c1C(=O)NCCCO [Example 22],1.0 µM
14,Cc1nc2c(OCc3c(F)cccc3F)cccn2c1C(=O)NCCCCO [Example 23],0.3 µM
15,Cc1nc2c(OCc3c(F)cccc3F)cccn2c1C(=O)NCCOCCO [Example 24],1.0 µM
16,CSCC[C@H](CO)NC(=O)c1c(C)nc2c(OCc3c(F)cccc3F)cccn12 [Example 25],0.1 µM
17,Cc1nc2c(OCc3c(F)cccc3F)cccn2c1C(=O)NC(CO)CO [Example 26],2.0 µM
18,Cc1nc2c(OCc3c(F)cccc3F)cccn2c1C(=O)NCC1CCCC[C@H]1O (stereo partly shown) [Example 27],0.3 µM
19,Cc1nc2c(OCc3c(F)cccc3F)cccn2c1C(=O)NCCC(C)O (stereo not shown) [Example 28],0.65 µM
20,Cc1nc2c(OCc3c(F)cccc3F)cccn2c1C(=O)N[C@@H](CO)C(C)C [Example 29],0.1 µM
21,CCC(O)CNC(=O)c1c(C)nc2c(OCc3c(F)cccc3F)cccn12 (stereo not shown) [Example 30],0.3 µM
22,Cc1nc2c(OCc3c(F)cccc3F)cccn2c1C(=O)NC1(CO)CCCC1 [Example 31],1.0 µM
23,Cc1nc2c(OCc3c(F)cccc3F)cccn2c1C(=O)NC[C@@H](O)c1ccccc1 [Example 32],1.0 µM
24,Cc1nc2c(OCc3c(F)cccc3F)cccn2c1C(=O)NC[C@H](O)c1ccccc1 [Example 33],0.3 µM
25,Cc1nc2c(OCc3c(F)cccc3F)cccn2c1C(=O)NC(C)(C)CO [Example 34],0.3 µM
26,Cc1nc2c(OCc3c(F)cccc3F)cccn2c1C(=O)N[C@@H](CO)C(C)(C)C [Example 35],0.3 µM
27,Cc1nc2c(OCc3c(F)cccc3F)cccn2c1C(=O)N[C@@H]1CCC[C@H]1O [Example 36],0.1 µM
28,Cc1nc2c(OCc3c(F)cccc3F)cccn2c1C(=O)N[C@@H]1CCC[C@@H]1O [Example 37],0.3 µM
